Target: human V1a receptor (Homo sapiens (Human), UniProt P37288)
Experiment: human V1a receptor binding studies (3H-Vasopressin, SPA beads)
Settings: membranes of HEK293 cells transiently transfected with human V1a receptor, Ki by Cheng-Prusoff
Description: The human V1a receptor was cloned by RT-PCR from total human liver RNA. The coding sequence was subcloned in an expression vector after sequencing to confirm the identity of the amplified sequence. […] Cell membranes were prepared from HEK293 cells transiently transfected with the expression vector and grown in 20 liter fermenters with the following protocol.
50 g of cells are re-suspended in 30 ml freshly prepared ice cold Lysis buffer ([…] HEPES. 1 mM EDTA, 10 mM MgCl2 adjusted to pH=7.4+complete cocktail of protease inhibitor (Roche Diagnostics)). Homogenized with Polytron for 1 min and sonicated on ice for 2×2 minutes at 80% intensity (Vibracell sonicator). The preparation is centrifuged 20 min at 500 g at 4° C., the pellet is discarded and the supernatant centrifuged 1 hour at 43'000 g at 4° C. (19'000 rpm). The pellet is re-suspended in 12.5 ml Lysis buffer+12.5 ml Sucrose 20% and homogenized using a Polytron for 1-2 min. The protein concentration is determined by the Bradford method and aliquots are stored at −80° C. until use. For binding studies 60 mg Yttrium silicate SPA beads (Amersham) are mixed with an aliquot of membrane in binding buffer (50 mM Tris, 120 mM NaCl, 5 mM KCl, 2 mM CaCl2, 10 mM MgCl) for 15 minutes with mixing. 50 μl of bead/membrane mixture is then added to each well of a 96 well plate, followed by […] of 4 nM 3H-Vasopressin (American Radiolabeled Chemicals). For total binding measurement 100 μl of binding buffer are added to the respective wells, for non-specific binding 100 μl of […] cold vasopressin and for compound testing 100 μl of a serial dilution of each compound in 2% DMSO. The plate is incubated 1 h at room temperature, centrifuged 1 min at 1000 g and counted on a Packard Top-Count. Non-specific binding counts are subtracted from each well and data is normalized to the maximum specific binding set at 100%. To calculate an IC 50 the curve is fitted using a non-linear regression model (XLfit) and the Ki is calculated using the Cheng-Prussoff equation.

human V1a receptor, sequence (P37288 whole entry): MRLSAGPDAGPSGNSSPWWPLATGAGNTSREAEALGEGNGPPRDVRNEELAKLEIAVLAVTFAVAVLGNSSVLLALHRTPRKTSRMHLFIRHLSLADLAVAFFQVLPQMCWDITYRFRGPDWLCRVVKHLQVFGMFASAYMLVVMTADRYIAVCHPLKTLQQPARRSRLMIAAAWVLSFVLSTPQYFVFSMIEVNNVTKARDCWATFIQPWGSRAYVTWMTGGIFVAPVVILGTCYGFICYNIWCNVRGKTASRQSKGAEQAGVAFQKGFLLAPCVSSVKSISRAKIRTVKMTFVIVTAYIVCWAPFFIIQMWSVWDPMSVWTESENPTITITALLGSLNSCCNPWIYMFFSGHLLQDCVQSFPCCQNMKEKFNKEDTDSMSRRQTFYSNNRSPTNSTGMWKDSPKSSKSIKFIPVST

SMILES | pKi hV1a
CC1(C)OC2(CCN(C3=NC(=O)C4(Cc5ccc(O)cc5C4)O3)CC2)c2cccnc21 (stereo not drawn) [Example 41, 2′-(7,7-dimethyl-1′H,7H-spiro[furo[3,4-b]pyridine-5,4′-piperidin]-1′-yl)-5-hydroxy-1,3-dihydro-4′H-spiro[indene-2,5′-[1,3]oxazol]-4′-one] | 8.9
Cc1ccc2c(n1)C1(CCN(C3=NC(=O)C4(Cc5ccccc5C4)O3)CC1)OC2 [Example 42, 2′-(2-methyl-1′H,5H-spiro[furo[3,4-b]pyridine-7,4′-piperidin]-1′-yl)-1,3-dihydro-4′H-spiro[indene-2,5′-[1,3]oxazol]-4′-one] | 9.1
Cc1ccc2c(n1)C1(CCN(C3=NC(=O)C4(Cc5ccccc5C4)O3)CC1)OC2=O [Example 43, 2-methyl-1′-(4′-oxo-1,3-dihydro-4′H-spiro[indene-2,5′-[1,3]oxazol]-2′-yl)-5H-spiro[furo[3,4-b]pyridine-7,4′-piperidin]-5-one] | 8.3
Cc1cnc2c(c1)COC21CCN(C2=NC(=O)C3(Cc4ccccc4C3)O2)CC1 [Example 44, 2′-(3-methyl-1′H,5H-spiro[furo[3,4-b]pyridine-7,4′-piperidin]-1′-yl)-1,3-dihydro-4′H-spiro[indene-2,5′-[1,3]oxazol]-4′-one] | 8.7
Cc1cnc2c(c1)C(=O)OC21CCN(C2=NC(=O)C3(Cc4ccccc4C3)O2)CC1 [Example 45, 3-methyl-1′-(4′-oxo-1,3-dihydro-4′H-spiro[indene-2,5′-[1,3]oxazol]-2′-yl)-5H-spiro[furo[3,4-b]pyridine-7,4′-piperidin]-5-one] | 7.6
Cc1ccc2c(n1)COC21CCN(C2=NC(=O)C3(Cc4ccccc4C3)O2)CC1 [Example 48, 2′-(2-methyl-1′H,7H-spiro[furo[3,4-b]pyridine-5,4′-piperidin]-1′-yl)-1,3-dihydro-4′H-spiro[indene-2,5′-[1,3]oxazol]-4′-one] | 7.9
Cc1ccc2c(n1)C(=O)OC21CCN(C2=NC(=O)C3(Cc4ccccc4C3)O2)CC1 [Example 49, 2-methyl-1′-(4′-oxo-1,3-dihydro-4′H-spiro[indene-2,5′-[1,3]oxazol]-2′-yl)-7H-spiro[furo[3,4-b]pyridine-5,4′-piperidin]-7-one] | 7.0
Cc1cnc2c(c1)C1(CCN(C3=NC(=O)C4(Cc5ccccc5C4)O3)CC1)OC2 [Example 52, 2′-(3-methyl-1′H,7H-spiro[furo[3,4-b]pyridine-5,4′-piperidin]-1′-yl)-1,3-dihydro-4′H-spiro[indene-2,5′-[1,3]oxazol]-4′-one] | 8.3
Cc1cnc2c(c1)C1(CCN(C3=NC(=O)C4(Cc5ccccc5C4)O3)CC1)OC2=O [Example 53, 3-methyl-1′-(4′-oxo-1,3-dihydro-4′H-spiro[indene-2,5′-[1,3]oxazol]-2′-yl)-7H-spiro[furo[3,4-b]pyridine-5,4′-piperidin]-7-one] | 7.4
O=C1OC2(CCN(C3=NC(=O)C4(Cc5ccccc5C4)O3)CC2)c2cnc(Cl)cc21 [Example 54, 6-chloro-1′-(4′-oxo-1,3-dihydro-4′H-spiro[indene-2,5′-[1,3]oxazol]-2′-yl)-1H-spiro[furo[3,4-c]pyridine-3,4′-piperidin]-1-one] | 7.4
O=C1OC2(CCN(C3=NC(=O)C4(Cc5ccccc5C4)O3)CC2)c2c1ccnc2Cl [Example 55, 4-chloro-1′-(4-oxo-1,3-dihydro-4′H-spiro[indene-2,5′-[1,3]oxazol]-2′-yl)-1H-spiro[furo[3,4-c]pyridine-3,4′-piperidin]-1-one] | 6.5
O=C1N=C(N2CCC3(CC2)OCc2ccccc23)OC12Cc1cccnc1C2 (stereo not drawn) [Example 56, 2′-(1′H,3H-spiro[2-benzofuran-1,4′-piperidin]-1′-yl)-5,7-dihydro-4′H-spiro[cyclopenta[b]pyridine-6,5′-[1,3]oxazol]-4′-one] | 8.2
O=C1N=C(N2CCC3(CC2)OCc2ccccc23)OC12Cc1cnc(CCl)cc1C2 (stereo not drawn) [Example 57, 3-(chloromethyl)-2′-(1′H,3H-spiro[2-benzofuran-1,4′-piperidin]-1′-yl)-5,7-dihydro-4′H-spiro[cyclopenta[c]pyridine-6,5′-[1,3]oxazol]-4′-one] | 6.3
Cc1cc2c(cn1)CC1(C2)OC(N2CCC3(CC2)OCc2ccccc23)=NC1=O (stereo not drawn) [Example 58, 3-methyl-2′-(1′H,3H-spiro[2-benzofuran-1,4′-piperidin]-1′-yl)-5,7-dihydro-4′H-spiro[cyclopenta[c]pyridine-6,5′-[1,3]oxazol]-4′-one] | 7.7
O=C1N=C(N2CCC3(CC2)OCc2ccccc23)OC12Cc1cnc(CF)cc1C2 (stereo not drawn) [Example 59, 3-(fluoromethyl)-2′-(1′H,3H-spiro[2-benzofuran-1,4′-piperidin]-1′-yl)-5,7-dihydro-4′H-spiro[cyclopenta[c]pyridine-6,5′-[1,3]oxazol]-4′-one] | 7.6
O=C1N=C(N2CCC3(CC2)OCc2ccccc23)OC12Cc1cnc(C(F)F)cc1C2 (stereo not drawn) [Example 60, 3-(difluoromethyl)-2′-(1′H,3H-spiro[2-benzofuran-1,4′-piperidin]-1′-yl)-5,7-dihydro-4′H-spiro[cyclopenta[c]pyridine-6,5′-[1,3]oxazol]-4′-one] | 7.7
O=C1N=C(N2CCC3(CC2)OCc2ccccc23)OC12Cc1cnc(C(F)(F)F)cc1C2 (stereo not drawn) [Example 61, 2′-(1′H,3H-spiro[2-benzofuran-1,4′-piperidin]-1′-yl)-3-(trifluoromethyl)-5,7-dihydro-4′H-spiro[cyclopenta[c]pyridine-6,5′-[1,3]oxazol]-4′-one] | 8.5
O=C1OC2(CCN(C3=NC(=O)C4(CCCc5ccccc54)O3)CC2)c2ccccc21 (stereo not drawn) [Example 63, 1′-(4′-oxo-3,4-dihydro-2H,4′H-spiro[naphthalene-1,5′-[1,3]oxazol]-2′-yl)-3H-spiro[2-benzofuran-1,4′-piperidin]-3-one] | 6.7
O=C1OC2(CCN(C3=NC(=O)C4(CCc5ccccc5C4)O3)CC2)c2ccccc21 (stereo not drawn) [Example 65, 1′-(4′-oxo-3,4-dihydro-1H,4′H-spiro[naphthalene-2,5′-[1,3]oxazol]-2′-yl)-1′H,3H-spiro[2-benzofuran-1,4′-piperidin]-3-one] | 8.8
COc1cccc2c1CC1(C2)OC(N2CCC3(CC2)OC(C)(C)c2ncccc23)=NC1=O (stereo not drawn) [Example 68, 2′-(7,7-dimethyl-1′H,7H-spiro[furo[3,4-b]pyridine-5,4′-piperidin]-1′-yl)-4-methoxy-1,3-dihydro-4′H-spiro[indene-2,5′-[1,3]oxazol]-4′-one] | 8.1
CC1(C)OC2(CCN(C3=NC(=O)C4(Cc5cccc(O)c5C4)O3)CC2)c2cccnc21 (stereo not drawn) [Example 69, 2′-(7,7-dimethyl-1′H,7H-spiro[furo[3,4-b]pyridine-5,4′-piperidin]-1′-yl)-4-hydroxy-1,3-dihydro-4′H-spiro[indene-2,5′-[1,3]oxazol]-4′-one] | 9.3
CC1(C)OC2(CCN(C3=NC(=O)C4(Cc5ccccc5C4)O3)CC2)c2ccc[n+]([O-])c21 [Example 70, 2′-(7,7-dimethyl-1-oxido-1′H,7H-spiro[furo[3,4-b)pyridine-5,4′-piperidin]-1′yl)-1,3-dihydro-4′H-spiro[indene-2,5′-[1,3]oxazol]-4′-one] | 7.3
CC1(C)OC2(CCN(C3=NC(=O)C4(Cc5ccccc5C4)O3)CC2)c2cc(O)cnc21 [Example 71, 2′-(3-hydroxy-7,7-dimethyl-1′H,7H-spiro[furo[3,4-b]pyridine-5,4′-piperidin]-1′-yl)-1,3-dihydro-4′H-spiro[indene-2,5′-[1,3]oxazol]-4′-one] | 10.2
CC1(C)OC2(CCN(C3=NC(=O)C4(Cc5ccccc5C4)O3)CC2)c2ccc(O)nc21 [Example 72, 2′-(2-hydroxy-7,7-dimethyl-1′H,7H-spiro[furo[3,4-b]pyridine-5,4′-piperidin]-1′-yl)-1,3-dihydro-4′H-spiro[indene-2,5′-[1,3]oxazol]-4′-one] | 8.5

Reference: US11578077B2, “Spiro-oxazolones” (Hoffmann-La Roche Inc., priority 2013, dated 2023)
